Literature values as cited in patent US20170106067A1, “COMBINATORIAL IMMUNOTHERAPY FOR PANCREATIC CANCER TREATMENT” (THE JOHNS HOPKINS UNIVERSITY, priority 2014, published 2017).

Tested on: metastatic PDA
Details: Le et al., 2013

Substance: ipilimumab
- clinical anti tumor activity in metastatic PDA patients: failed to demonstrate durable and effective anti tumor activity
